Reference: PMC7822874, “Chemoprotective antimalarials identified through quantitative high-throughput screening of Plasmodium blood and liver stage parasites” (Scientific Reports, 2021)
Like-named read-outs stand apart in the source and are kept apart here.

Assays:
in vitro = details: human, hepg2 cells
HepG2 = details: human, hepg2 cells, 48 h
[1] = tested on: Plasmodium falciparum Dd2 asexual blood stage parasites; assay: microbe, parasite or virus in culture; parameters: species or system Plasmodium falciparum Dd2 in human erythrocytes; single determination (one 11-point concentration-response curve); details: Plasmodium falciparum, DD2, Erythrocyte, 72 h

Log AC50 (M) (HepG2) | SMILES | CC50 at 48 h (in vitro) | AC50 ([1]; read-out: AC50) | AC50 [1]
-4.3643 M | CCOc1ccc(C2=C(C(C)=O)Sc3nnc(C)n3N2C(C)=O)cc1 [NCGC00137200-01] | 43.2 µM | 5.31 µM | 
-4.4643 M | CCC1CCCCN1CCCNC(=O)c1ccc2c(c1)sc1nc(-c3ccc(F)cc3)cn12 (stereo not drawn) [NCGC00121679-01] | 34.3 µM | 1.5 µM | 
-4.3643 M | CC(=O)C1=C(c2ccc(Cl)c(Cl)c2)N(C(C)=O)n2cnnc2S1 [NCGC00137238-01] | 43.2 µM | 3.76 µM | 
-4.3643 M | Cc1ccc(CNCc2cc3c(C(C)(C)C)nn(-c4ccccc4)c3[nH]c2=O)cc1 [MLS000067257-01] | 43.2 µM | 0.266 µM | 
-4.4643 M | CCCCNc1cc(C)nc(NCc2ccccc2)n1 [MLS000078573-01] | 34.3 µM | 9.44 µM | 
-4.3643 M | Cc1cc(Nc2ccc(Cl)cc2)nc(NCc2ccccc2)n1 [MLS000591025-01] | 43.2 µM | 0.422 µM | 
-4.3643 M | CCN1CCN(c2cc(C)c3cc(NC(=O)/C=C/c4ccc(C)cc4)ccc3n2)CC1 [NCGC00103850-01] | 43.2 µM | 4.22 µM | 
-4.3143 M | CCN(CC)CCOC(=O)c1ccc(NC(=O)c2cc3c(=O)n(CC)c4ccccc4c3s2)cc1 [NCGC00110417-01] | 48.5 µM | 2.66 µM | 
-4.5143 M | CCN1CCN(c2cc(C)c3cc(NC(=O)/C=C/c4ccc(OCCC(C)C)cc4)ccc3n2)CC1 [NCGC00103856-01] | 30.6 µM | 2.11 µM | 
-4.5643 M | COc1cc2c(Nc3ccc(Br)cc3F)ncnc2cc1OCC1CCN(C)CC1 [NCGC00167513-01] | 27.3 µM | 5.96 µM | 
-4.6143 M | CCOc1ccc(NS(=O)(=O)c2csc(C(N)=O)c2)cc1 [MLS001199948-01] | 24.3 µM | 7.5 µM | 
-4.3643 M | Cc1ccc(C)c(N2CCN(CCCNC(=O)c3cnn(-c4ccc(F)cc4)c3C3CCN(C(=O)OC(C)(C)C)CC3)CC2)c1 [NCGC00126698-01] | 43.2 µM | 2.66 µM | 
-4.4643 M | CCCCN(C)CCCNC(=O)Cn1ncc2c3ccccc3n(Cc3cc(C)ccc3C)c2c1=O [NCGC00114267-01] | 34.3 µM | 0.75 µM | 
-4.3643 M | O=C1NCN(c2ccccc2)C12CCN(CCCC(c1ccc(F)cc1)c1ccc(F)cc1)CC2 [NCGC00015424-04] | 43.2 µM | 5.31 µM | 
-4.4643 M | Cc1cc(NC2CCCCC2)nc(NCc2ccccc2)n1 [MLS000555549-01] | 34.3 µM | 16.8 µM | 
-4.5143 M | COc1ccc(C2=CC(c3ccc(F)cc3)n3ncc(C(=O)Nc4ccc(C)cc4)c3N2)cc1 (stereo not drawn) [NCGC00127228-01] | 30.6 µM | 2.37 µM | 
-4.3643 M | CC(C)(C)OC(=O)N1CCC(c2c(C(=O)NCCN3CCC(Cc4ccccc4)CC3)cnn2-c2ccc(F)cc2)CC1 [NCGC00126694-01] | 43.2 µM | 5.31 µM | 
-4.8143 M | CCOC(=O)CCCOc1cccn2c(=O)c(-c3cc(C)n(-c4ccc(Cl)cc4)n3)c(C)nc12 [NCGC00473250-01] | 15.3 µM | 10.6 µM | 
-4.3643 M | O=C(c1cc(NC(=O)C23CC4CC(CC(C4)C2)C3)cc(NC(=O)C23CC4CC(CC(C4)C2)C3)c1)N1CCCCC1 [MLS000549502-01] | 43.2 µM | 5.96 µM | 
-4.5143 M | CCN(CC)CCNC(=O)c1ccc(NC(=O)c2cn(-c3ccc(F)cc3)nc2-c2cccc(OC)c2)cc1 [MLS001233779-01] | 30.6 µM | 9.44 µM | 
-4.5643 M | O=C(Nc1ccc([C@H]2OCC(=O)N(Cc3ccncc3)[C@@H]2CO)cc1)c1ccc(C(F)(F)F)cc1 [NCGC00395114-01] | 27.3 µM | 16.8 µM | 
-4.3643 M | C=C(C)COc1ccc(-c2n[nH]c(C)c2-c2ccccc2)c(O)c1 [MLS000083081-01] | 43.2 µM | 4.73 µM | 
-4.3528 M | CC(C)C[C@@H]1N[C@H](C(=O)NC(C)C)Cc2cn(Cc3ccncc3)c3cccc1c23 [NCGC00395386-01] | 44.4 µM | 17.2 µM | 
-4.3643 M | Cc1ccc(C)c(N2CCN(CCCNC(=O)c3cnn(-c4cccc(Cl)c4)c3C3CCN(C(=O)OC(C)(C)C)CC3)CC2)c1 [NCGC00126914-01] | 43.2 µM | 8.41 µM | 
-5.9643 M | Cc1cc(NCc2ccccn2)n2nc(C)c(-c3ccccc3)c2n1 [MLS000559925-01] | 1.09 µM | 13.3 µM | 
-4.5143 M | CCN(CC)CCNc1ccnc2cc(Cl)ccc12 [MLS000066547-01] | 30.6 µM | 0.211 µM | 
-4.3643 M | CCCC1=Nc2cc(C(=O)NCCCN3CCCCC3CC)ccc2Sc2ccc(C)cc21 (stereo not drawn) [NCGC00424661-01] | 43.2 µM | 9.44 µM | 
-4.4643 M | CCN1C(=O)C2(CCN([S+](=O)([O-])c3ccc(Cl)cc3C)CC2)c2ccccc21 [NCGC00435870-01] | 34.3 µM | 5.31 µM | 

Further lines, the molecule ahead of its results:

SMILES | Log AC50 (M) (HepG2) | CC50 at 48 h (in vitro) | AC50 ([1]; read-out: AC50) | AC50 [1]
COc1cccc(Nc2ccc3c(n2)C(C)(C(=O)NC2CCN(C)CC2)CN(C)C3)c1 (stereo not drawn) [NCGC00414505-01] | -4.2528 M | 55.9 µM | 17.2 µM | 
CCC(CC)c1cc([C@H]2CN3CC[C@H]2C[C@@H]3COC(=O)Nc2ccc(C(C)(C)C)cc2)nc(-c2ccncc2)n1 [NCGC00394559-01] | -4.3643 M | 43.2 µM | 2.11 µM | 
CCN(CC)CCNC(=O)c1ccc(NC(=O)c2ccc(S(=O)(=O)N3CCCCCC3)cc2)cc1 [MLS001157553-01] | -4.4643 M | 34.3 µM | 8.41 µM | 
O=C(Nc1ccc([N+](=O)[O-])cc1)Nc1ccc(OC(F)F)c(Cl)c1 [MLS000581434-01] | -4.5143 M | 30.6 µM | 2.66 µM | 
Cc1cc(N2CCN(C)CC2)nc2ccc(NC(=O)Nc3cccc(Cl)c3)cc12 [NCGC00126479-01] | -4.3643 M | 43.2 µM | 4.22 µM | 
FC(F)(F)c1cnc(N2CCCN(C(S)=Nc3ccccc3)CC2)c(Cl)c1 [MLS000833545-01] | -4.3643 M | 43.2 µM | 4.73 µM | 
CC(C)(C)CC(C)(C)c1ccc(O)c(Cc2ccc(Cl)cc2Cl)c1 [NCGC00095016-01] | -4.6643 M | 21.7 µM | 1.68 µM | 
CN1CCC(Nc2ncc3ncnc(Nc4ccc(F)c(Cl)c4)c3n2)CC1.Cl.Cl [NCGC00161422-01] | -4.7643 M | 17.2 µM | 10.6 µM | 
CN(C)CCCNc1c2ccccc2nc2ccccc12 [MLS001198528-01] | -4.9143 M | 12.2 µM | 4.22 µM | 
COC(=O)C1=C(C)NC(C)=C(C(=O)OC(C)(C)CN(C)CCC(c2ccccc2)c2ccccc2)C1c1cccc([N+](=O)[O-])c1.Cl (stereo not drawn) [NCGC00167492-01] | -4.6143 M | 24.3 µM | 2.99 µM | 
COc1ccc(-[n+]2c(-c3ccc(Br)cc3)cn3c2CCc2ccccc2-3)cc1.[Br-] [MLS000391920-01] | -4.3643 M | 43.2 µM | 4.22 µM | 
COc1cc2nc(N3CCN(c4cc(C)ccc4C)CC3)nc(N)c2cc1OC.Cl [MLS001199642-01] | -4.3643 M | 43.2 µM | 6.68 µM | 
COc1ccccc1-c1ccc(CN2CCCC(c3nc4ccc(F)cc4c(=O)[nH]3)C2)cc1 (stereo not drawn) [NCGC00377223-02] | -4.3643 M | 43.2 µM | 8.41 µM | 
O=C(O)c1ccccc1.OC(CNCC1CCCO1)Cn1c2ccc(Cl)cc2c2cc(Cl)ccc21 (stereo not drawn) [MLS000525403-01] | -4.4143 M | 38.5 µM | 1.19 µM | 
Cc1nc(-c2ccccc2)cc([C@H]2CN3CC[C@H]2C[C@@H]3CN(Cc2ccco2)Cc2ccco2)n1 [NCGC00392555-01] | -4.5143 M | 30.6 µM | 2.99 µM | 
COc1ccc(/C=C/C(=O)Nc2ccc3nc4c(c(Nc5ccccc5OC)c3c2)CCCC4)cc1 [NCGC00104041-01] | -4.4643 M | 34.3 µM | 3.35 µM | 
CC1CCCN(Cc2c(O)ccc3c4c(c(=O)oc23)CCCC4)C1 (stereo not drawn) [MLS000778333-01] | -4.9143 M | 12.2 µM | 6.68 µM | 
COc1cc2c(cc1OCc1ccccc1)N(C(=O)c1cc3ccccc3n1C)CC21CCN(C)CC1 [NCGC00419848-01] | -4.3643 M | 43.2 µM | 2.11 µM | 
COc1ccc(NC(=O)c2ccc(Cl)c(S(=O)(=O)N3CCc4ccccc4C3)c2)cn1 [MLS000057537-01] | -4.4643 M | 34.3 µM | 7.5 µM | 
CC(Sc1nc2ccccc2c(=O)n1C)C(=O)N(C)C1CCCCC1 (stereo not drawn) [MLS001098006-01] | -4.3643 M | 43.2 µM | 5.31 µM | 
O=C(Nc1ccc(Nc2ccncc2)cc1)c1ccc(Nc2ccnc3ccc([N+](=O)[O-])cc23)cc1[N+](=O)[O-] [MLS000756458-01] | -4.5643 M | 27.3 µM |  | 1.33 µM
Cc1ccc(Oc2c(C)[nH]c(-c3ccccc3)nc2=O)cc1 [MLS000851017-01] | -4.3643 M | 43.2 µM | 5.31 µM | 
CCCCC(=O)NC(c1ccccc1OC)c1ccc2cccnc2c1O (stereo not drawn) [MLS000715346-01] | -4.7643 M | 17.2 µM | 5.31 µM | 
